Data from US7432045B2 (priority 2003, dated 2008).
Like-named read-outs stand apart in the source and are kept apart here. Peptide text beside a SMILES is read from it.

What was measured:
[1] = tested on: Influenza virus strain PR8; parameters: species or system mice; conditions: mouse, in vivo
hrR3 virions = test: Trypsinization of peptide-treated virions; assay type: cell-based, HSV-1; conditions: for IC50: 1 h at 37° C.
trypsin = molecular target: T1, trypsin (Sus scrofa, UniProt P00761); test: Trypsinization of peptides; conditions: 0.005 or 0.01% trypsin, 1 h at 37° C.
T1 construct: purchased BioWhittaker 17-160E
T1 sequence (P00761 9-231): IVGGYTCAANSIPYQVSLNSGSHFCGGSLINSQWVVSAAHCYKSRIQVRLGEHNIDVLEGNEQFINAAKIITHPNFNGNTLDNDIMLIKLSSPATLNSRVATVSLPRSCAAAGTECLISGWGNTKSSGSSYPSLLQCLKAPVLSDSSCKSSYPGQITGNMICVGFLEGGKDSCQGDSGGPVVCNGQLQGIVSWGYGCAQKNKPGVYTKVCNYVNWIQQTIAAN
Method: Trypsinization of peptides: Peptides dissolved in serum-free DMEM were exposed to 0.005 or 0.01% trypsin for 1 h at 37° C. The trypsin was then inactivated with a 1.3-fold molar excess of soybean trypsin inhibitor and the ability of the peptides to inactivate virions was tested as described above (centrifugation assay). In controls, trypsin was inactivated before it was added to the peptides.
In Panel B, peptides in serum-free medium were pre-treated with active trypsin (open bars) or inactivated trypsin (shaded bars) for 1 h at 37° C. before they were added to virions for 1 h at 37° C. (see Example 1). The treated virions were then pelleted and resuspended in serum-supplemented medium and assayed for infectivity without further trypsinization. The peptide concentrations were as high or higher than those used in Panel A: […] TAT-C, 50 μM bKLA, 200 μM EB and bHOM-9. Trypsin concentrations used in both Panels A and B, were 0.005% (for bKLA, EB and bHOM-9) or 0.01% (for TAT-C and the ‘no peptide’ control).

cornea = test: In vivo peptide toxicity, cornea; parameters: species or system BALB/C mice; conditions: for blepharitis: four times a day for seven days
Method: (i) Cornea: Four-6-week-old female BALB/C mice (Harlan Sprague Dawley, Indianapolis, Ind.) were anesthetized by halothane inhalation (3-5%). A 2.0 μL drop of serum-free 5×DMEM solution containing 6.1 mM EB, 6.1 mM EBX, 7.5 mM TAT-C, 7.5 mM n50,51 TAT-C, 7.5 mM TAT-Cd, or 11.2 mM bHOMd or serum-free DMEM only (control) was then placed on the cornea and the mice were returned to their cages. Each group consisted of 5 mice, except for 11.2 mM bHOMd, and 7.5 mM TAT-Cd, which consisted of 4 mice. Only the right eye in each mouse received the peptide. Treatments were given 4 times per day at least 2 hrs apart for 7 days. On days 1, 5, and 7, the mice were examined microscopically for evidence of blepharitis, punctate keratopathy, dendrite ulceration and geographic ulceration. Damage to the corneal epithelium was assessed by staining with 1.0% […] and examination under a microscope with blue light. Blepharitis was scored: 1+ for noticeable puffy eyelids, 2+ for puffy eyelids with moderate crusting, 3+ for eye 50% swollen shut with severe crusting, and 4+ for eye totally swollen and crusted shut (Brandt et al., 1992). Punctate keratopathy, dendrite ulceration, and geographic ulceration were scored: 1+ for <25% of the cornea involved, 2+ for 25-50% involved, 3+ for 50-75% involved, and 4+ for >75% involved. The mean disease score for each group of mice on each day was calculated by the sum of disease scores in each group on each day divided by the numbers of mice in that group. On day 7, following the last treatment, the mice were sacrificed and the eyes were removed, fixed in 10% formalin, embedded in paraffin, sectioned (5μ each), and stained with hematoxylin and eosin as we have described previously (Brandt et al., 1996). Sections were then examined for evidence of damage to the cornea, sclera, lens, and retina.

[2] = tested on: Vero, HeLa, CV-1PD, TM-1, DP-9, CEMx174, NIKS, W12E cells; test: MTS assay, eight cell lines; conditions: for cytotoxicity to cells (MTS), overall: eight cell lines

CC(C)C[C@H](NC(=O)[C@H](C)NC(=O)[C@H](CC(C)C)NC(=O)[C@H](CC(C)C)NC(=O)[C@@H](NC(=O)[C@H](C)NC(=O)[C@@H]1CCCN1C(=O)[C@H](CC(C)C)NC(=O)[C@H](CC(C)C)NC(=O)[C@H](C)NC(=O)[C@@H](NC(=O)[C@H](C)NC(=O)[C@H](C)NC(=O)[C@H](CCCCN)NC(=O)[C@H](CCCCN)NC(=O)[C@H](CCCNC(=N)N)NC(=O)[C@@H](N)CCCNC(=N)N)C(C)C)C(C)C)C(=O)N[C@@H](CC(C)C)C(=O)N[C@@H](C)C(=O)N1CCC[C@H]1C(=O)O [EB] (H-RRKKAAVALLPAVLLALLAP-OH) was tested, and the mice protected [1] was 90%, the “effect of trypsin on infectivity of peptide-treated virions” value (hrR3 virions) was “did not have any effect” and the “effect of trypsinization of the peptide on its antiviral activity” value (trypsin) was “completely abolished their antiviral activity”. The blepharitis (cornea) was “no effect”, the corneal pathology (cornea; mouse, in vivo) was “no evidence of corneal pathology” and the “time needed to induce cellular resistance” value (hrR3; 30 μM peptide, 37° C.) was “almost instantaneously”. For the same compound, the “reversibility of resistance induced at 4° C. by rinsing with 0.5 M NaCl” value (hrR3; induced at 4° C.) was “only partially reversible”, the “reversibility of resistance induced at 37° C. by rinsing with 0.5 M NaCl” value (hrR3; induced at 37° C.) was “completely irreversible” and the IC50 (hrR3; read-out: IC50 for rendering cells resistant to subsequent viral infection in the absence of peptide, cells exposed 1 h at 37° C., peptide rinsed off) was 2.3 µM. For the same compound, the IC50 (hrR3; read-out: IC50 of cellular resistance after 8.5 h in peptide-free medium, 8.5 h after first exposure) was > 100 µM, the IC50 (hrR3; read-out: IC50 of cellular resistance, first exposure, infected immediately after 1 h exposure) was 4 µM and the IC50 (hrR3; read-out: IC50 of cellular resistance, second exposure, second exposure 8.5 h after the first) was 2.5 µM. The “cytotoxicity to cells (MTS), overall” value [2] was “generally not cytotoxic”.

For N=C(N)NCCC[C@H](NC(=O)CN)C(=O)N[C@@H](CCCCN)C(=O)N[C@@H](CCCCN)C(=O)N[C@@H](CCCNC(=N)N)C(=O)N[C@@H](CCCNC(=N)N)C(=O)N[C@@H](CCC(N)=O)C(=O)N[C@@H](CCCNC(=N)N)C(=O)N[C@@H](CCCNC(=N)N)C(=O)N[C@@H](CCCNC(=N)N)C(=O)N[C@@H](CS)C(=O)O [TAT-C, NH2-GRKKRRQRRRC-COOH], the mice protected [1] was 90%, the “effect of trypsin on infectivity of peptide-treated virions” value (hrR3 virions) was “no effect on virus infectivity” and the IC50 (hrR3 virions; read-out: IC50 after exposure of treated virus to 0.01% active trypsin) was 86 µM. The IC50 (hrR3 virions; read-out: IC50 after exposure of treated virus to inactivated trypsin) was 90 µM, the “effect of trypsinization of the peptide on its antiviral activity” value (trypsin) was “completely abolished their antiviral activity” and the blepharitis (cornea) was “mild blepharitis”. The “inhibition after rinsing with 0.5 M NaCl” value (hrR3; 30 μM peptide 1 h at 4° C.) was “completely reversed”, the infection blocked (hrR3; 30 μM peptide 1 h at 4° C., rinsed with culture medium alone) was 50% and the “concentration at which not toxic (MTS)” value ([2]; all cell lines tested) was > 400 µM. The “cytotoxicity to cells (MTS), overall” value [2] was “generally not cytotoxic”.
